The values below come from PubChem BioAssay (NCI).

Assay in all cases: inhibition of tumour cell growth, NCI panel, 48 h
Test [1] has as its system 786-0 renal.
For test [2], the system named is EKVX NSCLC.
For test [3], the system named is OVCAR-3 ovarian.
Test [4] concerns OVCAR-4 ovarian.
For test [5], the system named is SK-MEL-2 melanoma.
Test [6] relates to SR leukemia.
Test [7] relates to TK-10 renal.
The test system of test [8] is UACC-62 melanoma.

Structures are written as SMILES.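 How tested: cells in 96-well plates exposed to compound for 48 hours at five concentrations. Abbreviation: GI50, concentration required for 50% inhibition of growth. At the TGI there is no net growth.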

Turning to `C/C(=C\CNc1ncnc2c1ncn2C1CCCCO1)COP(=O)(O)O` (centres undefined), the TGI in test [1], in test [2], in test [3], in test [4], in test [5] and in test [6] was more than 100 µM each time. Also, the TGI in test [7] and in test [8] was more than 100 µM each time.
As to `CC(C)(C)c1cc(Cc2ccc(S(C)(=O)=O)cc2)c(O)c(C(C)(C)C)c1`, the TGI in test [1] stood at 29.6 µM; in test [2] it was 28.4 µM; in test [4], 28.1 µM; in test [5], 30.4 µM; in test [6], 29.5 µM; in test [7], 31.7 µM. This compound returned a TGI in test [8] of 26 µM.
In the case of `NNC(=O)N/N=C(/CC1(O)C(=O)Nc2ccc(Br)cc21)c1ccccc1` (centres undefined), the TGI is more than 100 µM in test [1]; more than 100 µM in test [2]; more than 100 µM in test [3]; 85.2 µM in test [5]; 87.8 µM in test [6]; more than 100 µM in test [7]. This compound came in with a TGI in test [8] of 50.9 µM.
As for `COc1c(CC(C)=O)c2ccccc2n1C(C)=O`, the TGI in test [1], in test [2], in test [3], in test [4], in test [5] and in test [6] was more than 100 µM throughout. Moreover, the TGI in test [8] is more than 100 µM.
`[pH]1p2[pH]p3p1p3[pH]2.c1cc[c]([Ge]([c]2ccccc2)[c]2ccccc2)cc1.c1cc[c]([Ge]([c]2ccccc2)[c]2ccccc2)cc1.c1cc[c]([Ge]([c]2ccccc2)[c]2ccccc2)cc1`: the GI50 in test [1] was 17.1 µM; in test [2], 21.3 µM; in test [3] it was 10.9 µM; in test [4], 25.2 µM; in test [5], 19.4 µM; in test [6], 12.8 µM. Besides, the values for the GI50 in test [7] and in test [8] were 18.5 µM and 14.3 µM, respectively. Moreover, the TGI in test [1] is 32.3 µM; in test [2] it was 46.3 µM; in test [3], 23.4 µM; in test [4], 56.7 µM; in test [5] it was 34.9 µM; in test [6], 80.2 µM. Also, the TGI in test [7] amounted to 33.5 µM; in test [8], 31 µM.
`CC(=O)[CH-]C(=O)c1ccccc1.CC(=O)[CH-]C(=O)c1ccccc1.CC(=O)[CH-]C(=O)c1ccccc1.[Cl-].[Hf+4]`: the GI50 in test [1] was 25.7 µM; in test [2] it was 24.2 µM; in test [3], 13.6 µM; in test [4], 86.5 µM; in test [5], 18.1 µM; in test [7], 39 µM. Moreover, the GI50 in test [8] was 29.7 µM. Also, the TGI in test [1] is more than 100 µM; in test [2], 92.9 µM; in test [3], more than 100 µM; in test [4] it was more than 100 µM; in test [5], 53.2 µM; in test [7] it was more than 100 µM. In test [8], the TGI was more than 100 µM.
With `c1ccc(-c2sc(-c3ccccc3)c3c2C(c2ccccc2)c2c(-c4ccccc4)sc(-c4ccccc4)c2C3c2ccccc2)cc1` (centres undefined), the TGI in test [1], in test [2], in test [3], in test [4], in test [6] and in test [7] was more than 100 µM each time. The compound also yielded a TGI in test [8] of more than 100 µM.
As for `C=C1C2CCCC1C1(S(C)(=O)=O)CCCCC21O` (centres undefined), the TGI in test [1], in test [2], in test [3], in test [4], in test [5] and in test [6] was more than 100 µM throughout. In addition, the TGI in test [7] and in test [8] was more than 100 µM throughout.
In the case of `CCP(C)(=O)CC`, the TGI in test [1], in test [2], in test [3], in test [4], in test [5] and in test [6] was more than 100 µM each time. The TGI in test [7] and in test [8] was more than 100 µM each time.
Take `CS(=O)(=O)ON1C(=O)c2ccc(N)cc2C1=O`: the TGI in test [1] was more than 100 µM; in test [2], more than 100 µM; in test [3], more than 100 µM; in test [4], more than 100 µM; in test [5], more than 100 µM; in test [6], more than 68.8 µM. Moreover, the TGI in test [7] and in test [8] was more than 100 µM in each case.
With `Cc1cc(C)c([O-])c(-[n+]2c(-c3ccccc3)cc(-c3ccccc3)cc2-c2ccccc2)c1`, the TGI amounted to 19.7 µM in test [1]; 21.4 µM in test [2]; 12 µM in test [3]; 18.5 µM in test [4]; 10.2 µM in test [5]; 11.8 µM in test [6]. For the same compound, the figures for the TGI in test [7] and in test [8] were 19.4 µM and 12.5 µM, respectively.
For `O=C(CC(=O)N1N=C(n2ccc3ccccc32)CC1c1ccccc1)Nc1ccccc1Cl` (centres undefined), the TGI in test [1], in test [2], in test [3], in test [4], in test [5] and in test [7] was more than 100 µM throughout. In test [8], the TGI is more than 100 µM.
Consider `COc1ccc(C(=O)C(c2ccc(OC)cc2)C2(O)C(=O)Nc3c(Cl)cc(Cl)cc32)cc1` (centres undefined), for which the TGI in test [1] was found to be 29 µM; in test [2] it was 38.9 µM; in test [3], 49.9 µM; in test [4], 20.1 µM; in test [5], 31.5 µM; in test [7], 55 µM.
Turning to `Cc1[nH]c2ccccc2c1/C=C/c1c(C)[nH]c2ccccc12`, the TGI in test [1], in test [2], in test [3], in test [4], in test [5] and in test [7] was more than 100 µM in each case. Besides, in test [8], the TGI is more than 100 µM.
With `O=C1C=C(Nc2cc(Cl)ccc2Cl)c2ccccc2C1=O`, the TGI in test [1] was more than 100 µM; in test [2], more than 100 µM; in test [3], 63.7 µM; in test [4], more than 100 µM; in test [5] it was 33.9 µM; in test [8], 31.4 µM.
On to `Cc1c(C(=O)/C=C/c2ccc([N+](=O)[O-])cc2)[n+](=O)c2ccccc2n1[O-]`, for which the TGI in test [1], in test [2], in test [3], in test [4], in test [6] and in test [7] was more than 100 µM in each case. Also, the TGI in test [8] was more than 100 µM.
Take `NC(N)=NCCCC(Nc1c2ccccc2nc2ccccc12)C(=O)O` (centres undefined): the TGI in test [1] was more than 100 µM; in test [2] it was more than 100 µM; in test [3] it was more than 100 µM; in test [4] it was 43.4 µM; in test [5], more than 100 µM; in test [6], more than 100 µM. Besides, in test [7], the TGI was more than 100 µM.
On to `COC12OCCN(C)C1=CC(=O)C1N=NCC12` (centres undefined), for which the TGI in test [1], in test [2], in test [3], in test [7] and in test [8] was more than 100 µM in each case.
With `CN1CCN(CCCCCOc2cc(O)c3c(=O)cc(-c4ccccc4)oc3c2)CC1`, the GI50 was 12.4 µM in test [1]; 10.2 µM in test [2]; 3.45 µM in test [3]; 19.1 µM in test [4]; 3.04 µM in test [5]; 12 µM in test [7]. Further, the GI50 in test [8] is 1.86 µM. Also, the TGI was 26.6 µM in test [1]; more than 100 µM in test [2]; 8.1 µM in test [3]; 77.7 µM in test [4]; 8.76 µM in test [5]; 39.4 µM in test [7]. This compound also displayed a TGI in test [8] of 3.26 µM.
As to `CN(C)CC1CCCC/C1=N\OC(=O)c1ccccc1` (centres undefined), the TGI in test [1], in test [2], in test [3], in test [4], in test [5] and in test [6] was more than 100 µM throughout. Further, the TGI in test [7] and in test [8] was more than 100 µM throughout.
With `CC(=O)[CH-]C(=O)c1ccccc1.CC(=O)[CH-]C(=O)c1ccccc1.CC[C@H](CCC(C)[C@H]1CCC2[C@@H]3CC=C4C[C@@H]([O-])CC[C@]4(C)C3CC[C@@]21C)C(C)C.CC[C@H](CCC(C)[C@H]1CCC2[C@@H]3CC=C4C[C@@H]([O-])CC[C@]4(C)C3CC[C@@]21C)C(C)C.Cl.[Ti+4]` (some centres undefined), the TGI in test [1], in test [2], in test [3], in test [4], in test [5] and in test [7] was more than 25 µM each time. Moreover, in test [8], the TGI was more than 25 µM. Moreover, in test [8], the GI50 was more than 25 µM.
As to `COC1(OC)CCC2(C)OC(c3ccccc3)C1O2` (centres undefined), the TGI in test [1], in test [2], in test [3], in test [4], in test [5] and in test [6] was more than 100 µM in each case. The TGI in test [7] and in test [8] was more than 100 µM throughout.
`CCOC(=O)C1(C)C2=CC=C(O2)C(C)(C)C2=CC=C(O2)C(C)(C)C2=CC=C(O2)C(C)(C)C2=CC=C1O2`: the TGI in test [1], in test [2], in test [4], in test [5], in test [6] and in test [7] was more than 100 µM each time.
In the case of `O=C1CCC2(c3ccccc3)OCC([C@@H](O)c3ccccc3)N12` (some centres undefined), the TGI in test [1], in test [2], in test [3], in test [4], in test [5] and in test [6] was more than 100 µM in each case. Also, the TGI in test [7] and in test [8] was more than 100 µM in each case.
For the compound `Oc1ccc(I)c2cccnc12`, the TGI in test [1] was more than 100 µM; in test [2], 65.2 µM; in test [3], more than 100 µM; in test [4] it was more than 100 µM; in test [5] it was 71.4 µM; in test [6] it was 14.8 µM. The compound also registered a TGI in test [7] of more than 100 µM.
Take `O=c1[nH]c(-c2ccccc2)nc2cc([N+](=O)[O-])c(/C(Cl)=C/c3ccccc3)cc12`: the TGI is more than 100 µM in test [1]; more than 100 µM in test [2]; more than 100 µM in test [3]; 49.5 µM in test [4]; 71.8 µM in test [5]; more than 100 µM in test [6]. In addition, the figures for the TGI in test [7] and in test [8] were 76.6 µM and 42.6 µM, respectively.
As to `C=CCc1cc(OC)c(O)c(C(=O)/C=C/c2ccc(OC)c(OC)c2)c1`, the TGI turned out to be 35.9 µM in test [1]; 52.5 µM in test [2]; 41.3 µM in test [3]; 34.9 µM in test [4]; 28.8 µM in test [5]; 64.1 µM in test [7]. Moreover, the TGI in test [8] stood at 52.2 µM.
As to `CC1CN1c1c(C(=O)/C=C/c2ccc(F)cc2)c(-c2ccccc2)nn(C)c1=O` (centres undefined), the TGI stood at 29.2 µM in test [1]; 33.4 µM in test [2]; 28.9 µM in test [3]; 42.7 µM in test [4]; 37.9 µM in test [5]; 31 µM in test [7]. For the same compound, in test [8], the TGI stood at 27.6 µM.
As for `O=C1CC[C@@H](S(=O)(=O)c2ccccc2)[C@H](/C=C/c2ccccc2)O1`, the TGI in test [1], in test [2], in test [3], in test [4], in test [6] and in test [7] was more than 100 µM throughout. The compound further yielded a TGI in test [8] of more than 100 µM.
As to `CC(=O)NNc1nc(C)c(C(=O)/C=C/c2ccc(N(C)C)cc2)s1`, the TGI in test [1], in test [2], in test [3], in test [5], in test [7] and in test [8] was more than 100 µM throughout.
As for `NC(=S)N/N=C/C(O[C@@H](/C=N/NC(N)=S)CO)n1cnc2c(N)ncnc21` (some centres undefined), the TGI was more than 100 µM in test [1]; more than 100 µM in test [2]; more than 94.5 µM in test [3]; more than 100 µM in test [4]; more than 100 µM in test [6]; more than 100 µM in test [7]. Also, the TGI in test [8] is more than 100 µM.
